Assay results from article PMC8998031, “A Boronated Derivative of Temozolomide Showing Enhanced Efficacy in Boron Neutron Capture Therapy of Glioblastoma” (Cells, 2022).

Tests used:
HS683 cells [1] = assay: Clonogenic cell survival assay without BNCT; assay type: cell-based, Human
HS683 cells [2] = assay: CCK8 cell proliferation assay; assay type: cell-based, Human; conditions: read-out: IC50 (cell viability, CCK8)
Description: Cell proliferation was measured with a CCK8 assay following the manufacturer’s protocol (Dojindo Molecular Technologies, Inc., Kumamoto, Japan). The IC50 was calculated using Prism software using the following algorithm: Cell Viability=100/1+10^(LogIC50−Concentration)×Hillslope

HS683 cells [3] = assay: Clonogenic cell survival assay with BNCT (neutron irradiation); assay type: cell-based, Human; conditions: total neutron fluence 2.4 ± 0.3 × 10^11 n/cm^2
Description: HS683 cells were prepared in a 200 μL centrifuge tube and treated with BPA or TMZB at gradient concentrations in 0.0–1.0 μg/mL for 30 min. Cells were irradiated with epithermal neutrons for approximately 30 min to achieve total neutron fluence at 2.4 ± 0.3 × 10^11 n/cm^2. After radiation, the drug-containing medium was removed, and cells were incubated in fresh medium for 12 h. A certain number of cells in a single-cell suspension were seeded into 6-well plates to grow colonies. After 2 weeks of incubation, colonies were fixed with 70% ethanol at room temperature for 10 min, stained with 0.1% crystal violet, and then dried overnight. Colonies with more than 50 cells were scored as clonogenic survivors under a bright field microscope.

U251 cells = assay: Boron uptake in U251 cells (ICP-AES); assay type: cell-based, Human; conditions: exposure of 1.99 mM BPA, 12 h
Description: (§1) Human GBM cells U87MG, U251, and HS683 and endothelial cell HUV-EC were obtained from the National Infrastructure of Cell Line Resource in Beijing, China. Cell lines were authenticated at the National Infrastructure of Cell Line Resource, Beijing, China. GBM cells were cultured in a DMEM medium containing 10% fetal bovine serum and 1% penicillin/streptomycin at 5% CO2 and 37 °C. HUV-EC cells were cultured in complete culture medium (Procell Life Science & Technology Co., Ltd., Wuhan, China). Cells were tested mycoplasma free using a Mycoplasma Test Kit (Cellorlab, China). All materials for cell culture were purchased from Gibco Invitrogen (Grand Island, NY, USA) unless otherwise noted.
(§2) TMZB (molecular weight, 412.21) and BPA (209.01; obtained from HEC Pharm, Dongguan, China) were made into 0.0–1.0 mg/g aqueous solutions. GBM cells and HUV-EC cells were treated with different concentrations of TMZB or BPA solutions. The drug-containing medium was removed 12 h later. The biodistribution of boron in TMZB- or BPA-treated mice was measured at the timepoint for neutron irradiation, i.e., 2 h after drug injection. Eight nude mice in each group were injected with 500 mg/kg of BPA, TMZ, or TMZB through the tail vein of the nude mice, in a 3,5-tetrazine-8-methoxy-4-phenylboronic acid-ethyl ester solution. […]

HS683 GBM mouse model = assay: In vivo BNCT test, PET/CT imaging with 18F-FDG; set-up: species or system nude mice
Description: (§3) Single-cell suspension with HS683 cells was prepared at 2 × 10^7 cells/mL. Nude mice were anesthetized with an intraperitoneal injection of tribromoethanol at a dose of 150 mg/kg and positioned in a stereotaxic instrument. After disinfection with 75% alcohol, the scalp was cut open with a scalpel, the bregma point was selected, and a hole was made in the mouse skull using a 1 mm cranial drill. Then, 5 μL of cell suspension was taken using a micro-injector, which was then fixed on the brain with a needle depth at 3.0 mm using a stereotaxic instrument. Three minutes later, the micro-injector was lifted by 0.5 mm to make rooms for the injection of cells at 1 μL/min. After removing the needle, the drill hole in the mice skull was then filled with bone wax, the skin incision was sutured, and the wound was disinfected with iodophor. The GBM model was established approximately 28 days after cell injection.
PET/CT imaging with 1.5 uCi/g ^18F-FDG was performed for all the mice anesthetized with 2% isoflurane at 25 °C before BNCT. Mice were anesthetized with an intraperitoneal injection of tribromoethanol at a dose of 150 mg/kg. The mice were then injected i.v. with 50 mg ^10B/kg of BPA (5% fructose solution) or the TMZB solution at 50 mg ^10B/kg or TMZ at 600 mg/kg through the tail vein. Then, 90 min later, mice were fixed in the mold and anesthetized for BNCT. Mice heads were treated with 2 kw of neutron fluence for 2 h each time and 4 times for each mouse with 2 days interval in between, to achieve a total neutron fluence of 16.5 ± 0.3 × 10^11 n/cm^2. Boron compounds were injected prior to each of the radiation fractions. PET/CT imaging was performed again 31 days after BNCT. Three-dimensional reconstructions of the PET/CT images were performed using AMIDE (Stanford University, Stanford, CA, USA). ROI, SUV values, and tumor volume were then analyzed.

[4] = In vivo boron distribution in GBM mouse model (ICP-AES); set-up: species or system nude mice; conditions: 50 mg 10B/kg
Description: as §3
TMZB (molecular weight, 412.21) and BPA (209.01; obtained from HEC Pharm, Dongguan, China) were made into 0.0–1.0 mg/g aqueous solutions. GBM cells and HUV-EC cells were treated with different concentrations of TMZB or BPA solutions. The drug-containing medium was removed 12 h later. […] Eight nude mice in each group were injected with 500 mg/kg of BPA, TMZ, or TMZB through the tail vein of the nude mice, in a 3,5-tetrazine-8-methoxy-4-phenylboronic acid-ethyl ester solution. […] Cells or tissues were digested with concentrated nitric acid for the analysis of boron concentration via ICP-AES.

HS683 cells [5] = assay: Boron uptake in HS683 cells (ICP-AES); assay type: cell-based, Human; conditions: series of concentrations, 12 h
Description: as §1, §2

N[C@@H](Cc1ccc(B(O)O)cc1)C(=O)O [BPA, boronated phenylalanine]
IC50 (HS683 cells [1]): 2310 µM
IC50 (HS683 cells [2]; without BNCT): 1110 µM

N[C@@H](Cc1ccc([10B](O)O)cc1)C(=O)O [BPA, boronated phenylalanine]
clonogenic cell death after BNCT (HS683 cells [3]; HS683, 0.239 mM BPA): 63.7% ± 6.3
boron uptake (U251 cells): 0.126 μg/10^6 cells
SUV max after BNCT (HS683 GBM mouse model; 31 days after BNCT, 50 mg 10B/kg, 18F-FDG PET/CT): significantly reduced
18F-FDG uptake in tumors after BNCT (HS683 GBM mouse model; 31 days after BNCT, compared with TMZ-treated group): significantly lower than that in the TMZ-treated group
tumor volume decrease (tumor shrinkage) after BNCT (HS683 GBM mouse model; 31 days after neutron irradiation, 50 mg 10B/kg i.v., total neutron fluence 16.5 ± 0.3 × 10^11 n/cm^2, PET/CT): 35.2%
tissue of main boron accumulation ([4]; 2 h after administration): mainly accumulates in the kidney
boron concentration in mice tumors ([4]; 2 h after i.v. administration): 16.93 ± 9.75 μg B/g
boron concentration in mice tumors ([4]; 6 h after i.v. administration): 5.07 ± 1.43 μg B/g
tumor-to-blood ratio (T/B) of boron concentrations ([4]; GBM mouse model): 2.26 ± 1.56
tumor-to-normal brain ratio (T/N) of boron concentrations ([4]; GBM mouse model): 2.61 ± 1.98
boron uptake (in words) (HS683 cells [5]): low uptake

Cn1nnc2c(C(N)=O)ncn2c1=O [TMZ, temozolomide]
IC50 (HS683 cells [1]; Homo sapiens, Hs 683): 213 µM
clonogenic cell death after BNCT (HS683 cells [3]; HS683, 0.258 mM TMZ): 47.9% ± 6.6
IC50 (HS683 cells [2]; Homo sapiens, Hs 683, without BNCT): 284 µM
